Measurements: patent US11530198B2, “Compositions and methods for treating infections” (priority 2016, dated 2022)
Like-named read-outs stand apart in the source and are kept apart here.

Biological target: T. gondii DHFR (tgDHFR) (Toxoplasma gondii, UniProt Q07422)

## Nc1ncc(N2CCN(c3ccc(Cl)c(Cl)c3)CC2)c(N)n1 [Compound 1, 5-(4-(3,4-dichlorophenyl)piperazin-1-yl)pyrimidine-2,4-diamine]
hDHFR IC50/tgDHFR IC50
  Average DHFR selectivity (h/tg): 5.5

## Nc1ncc(N2CCN(c3cccc(Br)c3)CC2)c(N)n1 [Compound 11, 5-(4-(3-bromophenyl)piperazin-1-yl)pyrimidine-2,4-diamine]
hDHFR IC50/tgDHFR IC50
  Average DHFR selectivity (h/tg): 37.15

## Nc1ncc(N2CCC(c3ccccc3)CC2)c(N)n1 [Compound 15, 5-(4-phenylpiperidin-1-yl)pyrimidine-2,4-diamine]
hDHFR IC50/tgDHFR IC50
  Average DHFR selectivity (h/tg): 25.26

## Nc1ncc(N2CCN(c3cccc(N4CCOCC4)c3)CC2)c(N)n1 [Compound 25, 5-(4-(3-morpholinophenyl)piperazin-1-yl)pyrimidine-2,4-diamine]
hDHFR IC50/tgDHFR IC50
  Average DHFR selectivity (h/tg): 105.15

## CC1CN(c2cnc(N)nc2N)CCN1c1cccc(-c2ccccc2)c1 (stereo not drawn) [Compound 26, 5-(4-([1,1′-biphenyl]-3-yl)-3-methylpiperazin-1-yl)pyrimidine-2,4-diamine]
hDHFR IC50/tgDHFR IC50
  Average DHFR selectivity (h/tg): 14.96

## CC1CN(c2cccc(-c3ccccc3)c2)CCN1c1cnc(N)nc1N (stereo not drawn) [Compound 27, 5-(4-([1,1′-biphenyl]-3-yl)-2-methylpiperazin-1-yl)pyrimidine-2,4-diamine]
hDHFR IC50/tgDHFR IC50
  Average DHFR selectivity (h/tg): 218.78

## CCc1nc(N)nc(N)c1N1CCN(c2ccccc2)CC1 [Compound 28, 6-ethyl-5-(4-phenylpiperazin-1-yl)pyrimidine-2,4-diamine]
hDHFR IC50/tgDHFR IC50
  Average DHFR selectivity (h/tg): 235.78

## CCc1nc(N)nc(N)c1N1CCN(c2cccc(C)c2)CC1 [Compound 31, 6-ethyl-5-(4-(m-tolyl)piperazin-1-yl)pyrimidine-2,4-diamine]
hDHFR IC50/tgDHFR IC50
  Average DHFR selectivity (h/tg): 119.54

## CCc1nc(N)nc(N)c1N1CCN(c2cccc(OC)c2)CC1 [Compound 33, 6-ethyl-5-(4-(3-methoxyphenyl)piperazin-1-yl)pyrimidine-2,4-diamine]
  Average DHFR selectivity (h/tg): 120.23

## CCc1nc(N)nc(N)c1N1CCN(c2ccccn2)CC1 [Compound 34, 6-ethyl-5-(4-(pyridin-2-yl)piperazin-1-yl)pyrimidine-2,4-diamine]
hDHFR IC50/tgDHFR IC50
  Average DHFR selectivity (h/tg): 158.49

## CCc1nc(N)nc(N)c1N1CCN(c2ccncc2)CC1 [Compound 36, 6-ethyl-5-(4-(pyridin-4-yl)piperazin-1-yl)pyrimidine-2,4-diamine]
hDHFR IC50/tgDHFR IC50
  Average DHFR selectivity (h/tg): 110.92

## CCc1nc(N)nc(N)c1N1CCN(c2ccc(C)cc2)CC1 [Compound 39, 6-ethyl-5-(4-(p-tolyl)piperazin-1-yl)pyrimidine-2,4-diamine]
hDHFR IC50/tgDHFR IC50
  Average DHFR selectivity (h/tg): 144.58

## CCc1nc(N)nc(N)c1N1CCN(c2ccc(F)cn2)CC1 [Compound 44, 6-ethyl-5-(4-(5-fluoropyridin-2-yl)piperazin-1-yl)pyrimidine-2,4-diamine]
hDHFR IC50/tgDHFR IC50
  Average DHFR selectivity (h/tg): 71.23

## CCc1nc(N)nc(N)c1N1CCN(c2ccc(C)cn2)CC1 [Compound 45, 6-ethyl-5-(4-(5-methylpyridin-2-yl)piperazin-1-yl)pyrimidine-2,4-diamine]
hDHFR IC50/tgDHFR IC50
  Average DHFR selectivity (h/tg): 136.15

## Cc1nc(N)nc(N)c1N1CCN(c2ccccc2)CC1 [Compound 47, 6-methyl-5-(4-phenylpiperazin-1-yl)pyrimidine-2,4-diamine]
hDHFR IC50/tgDHFR IC50
  Average DHFR selectivity (h/tg): 84.63

## CCCc1nc(N)nc(N)c1N1CCC(c2ccccc2)CC1 [Compound 51, 5-(4-phenylpiperidin-1-yl)-6-propylpyrimidine-2,4-diamine]
hDHFR IC50/tgDHFR IC50
  Average DHFR selectivity (h/tg): 241.03

## CCCc1nc(N)nc(N)c1N1CCN(c2ccc(F)cc2)CC1 [Compound 52, 5-(4-(4-fluorophenyl)piperazin-1-yl)-6-propylpyrimidine-2,4-diamine]
hDHFR IC50/tgDHFR IC50
  Average DHFR selectivity (h/tg): 303.92

## CCCc1nc(N)nc(N)c1N1CCN(c2ccccn2)CC1 [Compound 56, 6-propyl-5-(4-(pyridin-2-yl)piperazin-1-yl)pyrimidine-2,4-diamine]
hDHFR IC50/tgDHFR IC50
  Average DHFR selectivity (h/tg): 269.78
